Laboratory results: patent US20070078123A1, “1-Thia-3-aza-dibenzo[e,h]azulenes for the treatment of central nervous system diseases and disorders” (PILVA-ISTRAZIVACKI INSTITUT D.O.O., priority 2003, published 2007)

Columns and labels:
5-HT2A receptor = target: T1, 5-HT2A receptor (Homo sapiens, UniProt P28223); experiment: Radioligand binding assay for 5-HT2A receptor ([3H]-ketanserin competitive binding); settings: human cortex or recombinant 5-HT2A receptor expressed in CHO-K1 cells, read-out: binding affinity to 5-HT2A serotonin receptor expressed as IC50 value
T1 construct: expressed in transfected cells; host or cells: CHO-K1 (or COS-7) cells; alternatively human cortex tissue
Experimental: (§1) The effect of the compounds of the present invention on the neurochemical steady state was determined by in vitro investigations such as a radionuclide-marked radioligand binding assay for 5-HT2A (Bonhaus D. W. Br. J. Pharmacol. 1995, 115:622; Saucier C. J. Neurochem. 1997, 68:1998) and 5-HT2C receptors (Wolf W. A. J. Neurochem. 1997, 69:1449), in vitro binding assay for σ1 receptor (Thomson W. and Donn R. Arthritis Res. 2002, 4: 302-306) and by in vivo investigations in a tail suspension test (Vogel H. G. and Vogel W. H. Drug Discovery and Evaluation Pharmacological Assays, Springer 1997, 304), in amphethamine-induced hyperlocomotion in mice (Millan M. J. et al, 1998 J Pharmacol. Exp. 7her. 287: 167-186), in a forced swim test in mice (Porsolt R. D. et al. Arch. Int. Pharmacodyn. 1977, 229:327-336), in meta-chlorophenyl piperazine (m-CPP) test on rats (Drug Dev. Res. 1989, 18:119-144), and in apomorphine, tryptamine and norepinephrine (ATN) test in rats (Arch. Int. Pharmacodyn. 1977, 227:238-253). […]
(§2) During incubation the radioligand bound to the receptor. When a binding balance was achieved, the receptors to which the radioligand was bound were separated from those to which said ligand was not bound, and the radioactivity of the receptor/radioligand complex was measured. […]

5-HT2C receptor = target: T2, 5-HT2C receptor (Homo sapiens, UniProt P28335); experiment: Radioligand binding assay for 5-HT2C receptor ([3H]-mesulergine competitive binding); settings: choroid plexus or recombinant 5-HT2C receptor expressed in CHO-K1 cells, read-out: binding affinity to 5-HT2C serotonin receptor expressed as IC50 value
T2 construct: expressed in transfected cells; host or cells: CHO-K1 (or COS-7) cells; alternatively choroid plexus tissue
T2 sequence (P28335 33-458): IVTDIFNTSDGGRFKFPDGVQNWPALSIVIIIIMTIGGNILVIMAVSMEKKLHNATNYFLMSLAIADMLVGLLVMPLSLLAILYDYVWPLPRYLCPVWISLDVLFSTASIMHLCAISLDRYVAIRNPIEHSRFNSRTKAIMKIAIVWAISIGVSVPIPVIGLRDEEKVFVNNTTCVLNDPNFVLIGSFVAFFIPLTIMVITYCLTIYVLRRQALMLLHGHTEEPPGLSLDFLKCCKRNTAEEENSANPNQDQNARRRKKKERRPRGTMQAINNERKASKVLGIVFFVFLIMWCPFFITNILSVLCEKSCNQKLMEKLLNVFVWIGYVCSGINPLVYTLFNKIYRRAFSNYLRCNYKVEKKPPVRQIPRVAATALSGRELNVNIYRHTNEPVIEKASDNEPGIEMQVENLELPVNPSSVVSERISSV
Experimental: as §1, §2

T1 sequence (P28223 whole entry): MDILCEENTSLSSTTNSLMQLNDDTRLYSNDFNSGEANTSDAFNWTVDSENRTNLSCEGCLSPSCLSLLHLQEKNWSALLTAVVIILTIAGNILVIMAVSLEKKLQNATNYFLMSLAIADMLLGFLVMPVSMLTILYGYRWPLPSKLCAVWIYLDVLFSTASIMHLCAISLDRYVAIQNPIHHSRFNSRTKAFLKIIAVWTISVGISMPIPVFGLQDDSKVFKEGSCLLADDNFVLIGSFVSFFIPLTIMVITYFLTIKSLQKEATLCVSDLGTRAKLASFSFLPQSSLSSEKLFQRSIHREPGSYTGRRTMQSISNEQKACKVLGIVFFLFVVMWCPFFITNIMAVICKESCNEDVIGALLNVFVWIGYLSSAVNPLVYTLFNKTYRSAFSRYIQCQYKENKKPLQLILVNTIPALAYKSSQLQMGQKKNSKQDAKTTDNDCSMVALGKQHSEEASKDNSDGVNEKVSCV

- IC50 (5-HT2A receptor): < 200 nM
- IC50 (5-HT2C receptor): < 200 nM
Structure (SMILES): CN(C)CCCOCc1nc2c(s1)-c1ccccc1Oc1ccc(Cl)cc1-2 [[3-(5-chloro-8-oxa-1-thia-3-aza-dibenzo[e,h]azulen-2-ylmethoxy)-propyl]-dimethyl-amine]
